Test results taken from EP1293213A1, “PREVENTIVES/REMEDIES FOR POSTOPERATIVE STRESS” (Japan Tobacco Inc., priority 2000, dated 2001).

Key:
[1] = target: T1, CRF type I(CRF-I) receptor (Homo sapiens, UniProt P34998); assay: in vitro Binding Assay using membrane fraction of recombinant cell (6EF2B) expressing CRF receptor gene (SPA method); settings: 125I-Tyr0-human/rat CRF, membrane fraction of 6EF2B cells (derived from Hela cell), read-out: IC50(nM) [experiment 1]
T1 construct: expressed in transfected cells; membrane fraction
T1 sequence (P34998 24-415): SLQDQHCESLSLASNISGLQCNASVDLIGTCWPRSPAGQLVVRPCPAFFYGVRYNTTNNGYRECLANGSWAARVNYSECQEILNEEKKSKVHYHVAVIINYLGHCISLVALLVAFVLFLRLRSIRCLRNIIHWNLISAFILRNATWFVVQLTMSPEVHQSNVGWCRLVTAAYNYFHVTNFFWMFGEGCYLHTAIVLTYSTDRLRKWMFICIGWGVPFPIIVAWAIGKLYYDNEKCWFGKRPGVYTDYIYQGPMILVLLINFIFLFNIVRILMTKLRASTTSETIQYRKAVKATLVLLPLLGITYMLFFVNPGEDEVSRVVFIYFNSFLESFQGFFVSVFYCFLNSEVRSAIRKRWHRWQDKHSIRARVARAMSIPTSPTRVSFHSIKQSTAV
Experimental: Experiment 1 : in vitro Binding Assay using membrane fraction of recombinant cell (6EF2B) with expression of CRF receptor gene
Preparation of membrane fraction:
Recombinant cells 6EF2B (derived from Hela cell), which express CRF type I(CRF-I) receptor gene stably, were cultivated in Eagle's MEM medium(10%FCS, 400ug/ml G418.1/100 penicillin/streptomycin). After cultivation, cells were suspended in 50mM Tris-HCl (pH7.2) solution containing 1mM EDTA and incubated at 25°C for 15 to 30 minutes. After that, every step was carried out at 4°C. Treated cells were suspended in 50mM Tris-HCl(pH7.2) containing 10% sucrose and homogenized by a Polytron(PT10-35 model). This step of homogenization was carried out at 25,000 rpm for 15 to 20 seconds and repeated twice or three times. In the course of this step the homogenates were inspected under a microscope. Homogenates were centrifuged at 600 x g for 5 minutes and the supernatant was centrifuged again at 40,000 x g for 30 minutes. The obtained pellet was resuspended in 50mM Tris-HCl(10mM MgCl2, 2mM EGTA) and the suspension was centrifuged again at 40,000 x g for 30minutes. The obtained pellet was used for further experiments as membrane fraction. The membrane fraction was diluted with 50mM Tris-HCl(10mM MgCl2, 2mM EGTA, 0.1%BSA, 100 kallikrein units/ml aprotinin, 0.1mM bacitracin, pH7.2) to have the concentration of 1mg/ml and then stored at -80°C. DC protein assay kit (produced by Bio-RAD) was used to determine the protein concentration of the membrane fraction.
Binding Assay using CRF-I receptor by means of SPA method:
Compounds to be evaluated were stored at the concentration of 10mM in DMSO. […] The assay buffer consisted of 50mM Tris-HCl (pH7.7) containing 100mM NaCl, 5mM KCl, 2mM CaCl2, 0.1% BSA, 0.1% bacitracin, 0.05% FCS and 5% horse serum. The reactions were carried out in 96-well Optiplate(Packard) in which to 50ul of the test substance solution, were added 50ul of WGA-beads & membrane fraction (50 to 100ug membrane fraction/10mg beads/ml) pre-coupled by stirring (rotating with 10rpm) at room temperature for 2 hours on the day of experiment, and 100ul of 0.4nM ^125I-Tyr^0-human/rat CRF(NEX-216, Dupont NEN), to be made up 200ul as total volume, and the mixture was incubated at 25°C for 3 hours. By the way, the step of pre-coupling was carried out by using beads solution (20mg/ml) suspended in 50mM Tris-HCl buffer solution (pH7.2) and after stirring beads were washed twice with Tris-HCl buffer and once with assay buffer by centrifugation (3000 rpm, 5 minutes). In order to measure total binding and non-specific binding activity, assay buffer solution and 1uM(final conc.) cold human /rat CRF(C-3042; SIGMA) solution were used respectively in place of test substance solution. After incubation, the mixture was centrifuged at 23 °C, 2,500 rpm for 5 minutes and the scintillation was counted with Top Count (Packard). An influence of color quench was corrected by standard curve made by using tartrazine as a quencher. Evaluation of samples was carried out several times.

[2] = tested on: adrenocorticotropic hormone(ACTH); assay: Experiment 2: Model of surgical stress in mouse (inhibitory action of rise in releasing of ACTH); assay type: in vivo; settings: ddY male mice, intravenous, surgical stress (abdominal incision, bowel draped externally)
Experimental: Experiment 2: Model of surgical stress in mouse (Inhibitory action of rise in releasing of adrenocorticotropic hormone(ACTH))
(§1) ddY male mice(SLC, 7 to 8 weeks of age: weight 34 to 42g)were used for experiments. Mice were housed before use under controlled lighting condition (12hours light and 12hours dark cycle(lights on from 8:00 to 20:00) at 23±3 °C and 55±15% humidity, and maintained with basal diet and water ad labium. On the experimental day, mice were moved to experimental room and habituated before experiment for more than 1 hour. On the day before experiment, mice were previously handled (by being fastened up for 10 to 15 seconds like the case of i.p. injections) to habituate to the stress caused by handling.
Medicine and administration:
Test compound to be evaluated was dissolved in and diluted with physiological saline(Otsuka), 5% mannitol or 0.1N NaHCO3/saline. Then the test sample solution was given into veins of mice at a dose of 10ml/Kg body weight. The same solvent alone mentioned above was given into veins of control mice group at a dose of 10ml/Kg weight.
Mice were anesthetized by injection of pentobarbital Na (2.5mg/mouse i.p.) and after 15 minutes the solvent alone or the solution containing test sample to be evaluated were intravenously injected on the tails of mice at a dose of 10ml/ Kg weight of mouse. After more 10 minutes a midline incision was made in the abdomen and in two minutes bowel was draped externally. Then 2.5 minutes after incision 0.6ml of blood samples were collected from main vein abdominalis for 1 minute gradually by using prechilled syringes(needle size 25G), which were wetted with 100mM EDTA solution. Control mice not subjected to surgical stress were decapitated and blood samples were collected at 13 to 14 minutes after medication of solvent alone and to them added 20ul of 100mM EDTA. Blood samples collected were put into siliconized tubes and centrifuged at 10,000rpm and 4°C for 5 minutes. The concentration of ACTH in supernatant was determined by IRMA method using Allegro ACTH kit (Nihon Medi+Physics Co.,Ltd.). […]

corticosterone(CORT) = assay: Experiment 3: Model of surgical stress in mouse (inhibitory action of rise in releasing of CORT); assay type: in vivo; settings: ddY male mice, intravenous, blood 30 minutes after incision
Experimental: Experiment 3: Model of surgical stress in mouse (Inhibitory action of rise in releasing of corticosterone(CORT))
as §1, with “7” for “7 to 8”, “35” for “34”, “41g)were used.” for “42g)were used for experiments.”, “humidity 55±15%,” for “55±15% humidity,”, “day, after mice were weighted, diet was removed from mice just before experiments to eliminate the effects of food intake on experiments. Then,” for “day,”, “handling. Mice were divided into groups according to their weights on the experimental day.” for “handling.”
Medicine applied and method of administration: […]
Mice were anesthetized by injections of pentobarbital Na (2.5mg/mouse i.p.) and after 20 minutes the solvent alone or the solution containing test sample to be evaluated were intravenously injected into the tail veins of mice at a dose of 10ml/Kg weight. […]
The concentration of CORT was determined by using Corticosterone Double Antibody (RIA measurement kit of CORT; ICN Pharmaceuticals, Inc.). […]

CCc1cc(S(=O)(=O)N(CC)CC)cc(NC(=O)c2cc(Cl)c([O-])c(Cl)c2)c1OC.[K+] [Example 7, potassium 2,6-dichloro-4-(N-(3-ethyl-5-diethylsulfamoyl-2-methoxyphenyl)carbamoyl)phenoxide]
IC50 [1]: 263 nM | Inhibitory action on ACTH release (mg/kg) [experiment 2] [2]: 10 to 30 mg/kg | Inhibitory action on CORT release (mg/kg) [experiment 3] (corticosterone(CORT)): 10 to 30 mg/kg
